In this assay the target is T1, LmrCD (Lactococcus cremoris, UniProt A2RI37+A2RI38, A2RI37:C179R).
T1 construct: gene lmrC
Nature of the assay: biochemical.

T1 sequence (A2RI37 entry or part of it C179R): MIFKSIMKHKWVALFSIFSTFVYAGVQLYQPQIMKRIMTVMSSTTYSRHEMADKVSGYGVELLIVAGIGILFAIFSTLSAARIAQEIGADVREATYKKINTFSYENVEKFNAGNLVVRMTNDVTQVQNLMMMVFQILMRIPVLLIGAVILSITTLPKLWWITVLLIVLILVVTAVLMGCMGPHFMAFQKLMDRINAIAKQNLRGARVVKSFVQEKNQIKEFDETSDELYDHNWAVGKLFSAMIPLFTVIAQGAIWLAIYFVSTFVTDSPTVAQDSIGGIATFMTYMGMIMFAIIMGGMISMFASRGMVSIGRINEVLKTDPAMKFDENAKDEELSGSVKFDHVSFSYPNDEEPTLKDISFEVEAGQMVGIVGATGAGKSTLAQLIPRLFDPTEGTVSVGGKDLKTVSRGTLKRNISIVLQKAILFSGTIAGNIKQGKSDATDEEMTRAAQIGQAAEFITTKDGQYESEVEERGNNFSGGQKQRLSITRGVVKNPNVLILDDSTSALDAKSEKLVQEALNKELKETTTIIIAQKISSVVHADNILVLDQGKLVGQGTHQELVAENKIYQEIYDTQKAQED
T1 sequence (A2RI38 entry or part of it): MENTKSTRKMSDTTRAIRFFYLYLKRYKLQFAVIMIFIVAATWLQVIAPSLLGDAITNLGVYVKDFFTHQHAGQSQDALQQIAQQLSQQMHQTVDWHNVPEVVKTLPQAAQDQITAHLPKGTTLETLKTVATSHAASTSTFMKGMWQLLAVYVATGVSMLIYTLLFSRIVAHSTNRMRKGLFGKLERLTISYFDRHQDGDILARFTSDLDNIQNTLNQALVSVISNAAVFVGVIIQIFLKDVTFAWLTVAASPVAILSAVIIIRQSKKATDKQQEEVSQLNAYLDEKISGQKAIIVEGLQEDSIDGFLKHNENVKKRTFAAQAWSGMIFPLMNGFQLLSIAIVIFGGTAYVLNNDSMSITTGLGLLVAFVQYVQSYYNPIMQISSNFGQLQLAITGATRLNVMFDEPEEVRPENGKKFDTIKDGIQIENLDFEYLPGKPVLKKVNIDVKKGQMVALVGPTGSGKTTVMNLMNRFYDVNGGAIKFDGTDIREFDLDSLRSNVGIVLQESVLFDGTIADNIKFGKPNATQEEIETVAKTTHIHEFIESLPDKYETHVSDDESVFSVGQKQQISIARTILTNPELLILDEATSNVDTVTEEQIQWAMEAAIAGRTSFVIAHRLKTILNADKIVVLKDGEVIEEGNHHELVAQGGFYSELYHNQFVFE

`[O]=[V]([OH])([OH])[OH]` [orthovanadate] showed an IC50 of 120 µM.

Source of the values: publication PMC3366976, “Tuning the Drug Efflux Activity of an ABC Transporter in vivo by in vitro Selected DARPin Binders” (PLoS ONE, 2012).
